Entries after “also recorded” stand apart in the source; their conditions may differ. Like-named read-outs stand apart in the source and are kept apart here.
What was measured:
hCB2 [1] = molecular target: T1, hCB2 (Homo sapiens, UniProt P34972); assay: Competitive in vitro binding assay with [3H]CP-55,940, membranes of CHO-K1 cells stably transfected with hCB2; settings: displacement of [3H]CP-55,940 (1.4 nM), 30°C, 90 min; three independent experiments in triplicate; Cheng-Prusoff
T1 construct: purchased PerkinElmer; host or cells: CHO-K1 cells stably transfected
T1 sequence (P34972 whole entry): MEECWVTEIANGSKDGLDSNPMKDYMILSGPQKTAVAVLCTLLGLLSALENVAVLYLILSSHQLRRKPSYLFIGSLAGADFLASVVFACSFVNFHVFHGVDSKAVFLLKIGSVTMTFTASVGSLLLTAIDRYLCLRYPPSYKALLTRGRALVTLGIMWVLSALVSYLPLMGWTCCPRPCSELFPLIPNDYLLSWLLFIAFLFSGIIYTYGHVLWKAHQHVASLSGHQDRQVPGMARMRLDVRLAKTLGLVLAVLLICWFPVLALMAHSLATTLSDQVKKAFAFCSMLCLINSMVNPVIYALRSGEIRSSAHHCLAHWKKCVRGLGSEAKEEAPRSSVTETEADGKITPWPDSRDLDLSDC
Method: (§2) A dilution series ranging from 1 pM to 1 mM in assay buffer (50 mM TRIS, 1 mM EDTA, 3 mM MgCl2 and 0.05% bovine serum albumin, pH adjusted to 7.4) was prepared for each ligand to be tested. […] The samples were incubated at 30°C for 90 min and subsequently diluted with ice cold assay buffer (3 mL) in order to be vacuum-filtered through Whatman GF/C filters (pre-treated with aq. polyethylenimine, 0.05%). Each sample was washed twice with ice cold assay buffer (3 mL) and filtered again. After addition of scintillation cocktail (Ultima Gold, Perkin Elmer), radioactivity was measured using a Beckman LS 6500 Liquid Scintillation Counter. IC50 mean values were calculated after performing three independent experiments, each as triplicate.
(§3) Binding affinity studies were performed using membranes stably transfected with human CB1 and CB2, respectively.

hCB1 [2] = molecular target: T2, hCB1 (Homo sapiens, UniProt P21554); assay: Competitive in vitro binding assay with [3H]CP-55,940, membranes of CHO-K1 cells stably transfected with hCB1; settings: displacement of [3H]CP-55,940 (1.4 nM), 30°C, 90 min; three independent experiments in triplicate; Cheng-Prusoff
T2 construct: purchased PerkinElmer; host or cells: CHO-K1 cells stably transfected
T2 sequence (P21554 whole entry): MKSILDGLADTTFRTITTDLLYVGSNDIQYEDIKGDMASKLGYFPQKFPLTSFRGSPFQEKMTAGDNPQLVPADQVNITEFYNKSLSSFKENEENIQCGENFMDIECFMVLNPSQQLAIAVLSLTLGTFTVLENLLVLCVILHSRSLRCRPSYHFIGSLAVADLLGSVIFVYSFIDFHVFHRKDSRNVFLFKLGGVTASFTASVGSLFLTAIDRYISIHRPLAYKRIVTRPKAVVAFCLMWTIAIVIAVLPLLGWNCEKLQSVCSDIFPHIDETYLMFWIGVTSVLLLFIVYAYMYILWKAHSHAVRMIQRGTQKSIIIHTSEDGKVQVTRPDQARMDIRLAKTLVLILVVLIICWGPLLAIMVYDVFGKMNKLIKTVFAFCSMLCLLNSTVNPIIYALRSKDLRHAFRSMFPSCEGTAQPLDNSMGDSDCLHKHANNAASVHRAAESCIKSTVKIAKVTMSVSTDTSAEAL
Method: as §2, §3

hCB2 [3] = molecular target: T1, hCB2; design: method as in earlier work; settings: known ligands, entry 1–3; ref Showalter et al., 1996; Lan et al., 1999; Valenzano et al., 2005; cited from earlier work
hCB1 [4] = molecular target: T2, hCB1; design: method as in earlier work; settings: known ligands, entry 1–3; ref Showalter et al., 1996; Lan et al., 1999; Valenzano et al., 2005; cited from earlier work
[5] = system: CB2-positive rat spleen tissue; assay: In vitro autoradiography on rat spleen tissue sections; assay type: binding, Wistar rat; settings: 5 nM radiotracer; baseline vs blockade with 10 μM GW405833; n = 2
Method: (§1) Autoradiography was performed on rat/mouse spleen tissue. Sections were prepared in 20 μm thickness using a cryostat (Cryo-Star NX 50; Thermo Scientific). The tissue slices were adsorbed to SuperFrost Plus (Menzel) slides and stored at −20°C until use. After thawing on ice for 10 min, sections were pre-incubated in the assay buffer containing 50 mM TRIS, 5 mM MgCl2, 2.5 mM EDTA, and 0.5% BSA (pH 7.4). […] In order to test for specificity toward CB2, a solution containing both radiotracer and an excess of CB2 specific partial agonist GW405833 (10 μM) was prepared and added to the tissue. The tissue slices were washed twice with assay buffer (each 2 min) and twice with distilled water (each 5 s) on ice, air dried, and exposed to a phosphor imager plate for a period of 25 min. The plate was scanned using a BAS5000 reader (Fujifilm, Dielsdorf, CH).

CB2-positive spleen = assay: In vivo PET/CT of the spleen region after tail-vein injection; design: species or system Wistar rat
Method: Under baseline conditions, radiotracer accumulation was recorded in the region of the spleen in dynamic PET acquisition mode over 60 min (n = 2). During this whole time period rats were kept under anesthesia, body temperature and respiratory rate were constantly monitored. Under blockade conditions, 1.5 mg/kg GW405833 was injected shortly before radiotracer application in two of the four rats. Acquired PET data were reconstructed as user-defined time frames with a voxel size of 0.3875 × 0.3875 × 0.775 mm. For anatomical orientation, CT scans were acquired after each PET scan. Images were evaluated with PMOD v3.4 (PMOD Technologies Inc., Zurich, CH) software. Regions of interest (spleen, liver, and muscle) were drawn manually using the PMOD fusion tool. Time activity curves (TACs) for spleen, liver and muscle were expressed as standardized uptake values (SUV) which are the decay-corrected radioactivity per cm^3 divided by the injected radioactivity dose per gram of body weight.

[6] = system: CB2-positive mouse spleen tissue; assay: In vitro autoradiography on mouse spleen tissue sections; assay type: binding, CD1 mouse; settings: 5 nM radiotracer; baseline vs blockade with 10 μM GW405833; n = 2
Method: as §1

CCCc1c(C)sc(NC(=O)C23CC4CC(CC(C4)C2)C3)c1C(=O)OC [AAT-778, Methyl 2-(adamantane-1-carboxamido)-5-methyl-4-propylthiophene-3-carboxylate]
Ki (hCB2 [1]): 0.0043 ± 0.0007 µM | Ki (hCB1 [2]): 1.1 ± 0.1 µM

COc1ccc2c(c1)c(CCN1CCOCC1)c(C)n2C(=O)c1cccc(Cl)c1Cl [GW405833]
Ki (hCB2 [3]): 0.0039 ± 0.0016 µM | Ki (hCB1 [4]): 4.77 ± 1.68 µM

[11CH3]OC(=O)c1c(NC(=O)C23CC4CC(CC(O)(C4)C2)C3)sc2c1CCCC2 [[^11C]AAT-015]
specificity of binding to rat spleen tissue (autoradiography) [5]: high unspecific binding | spleen uptake of radiotracer (PET) (CB2-positive spleen; baseline, 10–15 MBq i.v., 0–60 min post injection): no accumulation; also recorded: low uptake | spleen uptake, TACs baseline vs blockade (PET) (CB2-positive spleen; blockade with 1.5 mg/kg GW405833 shortly before tracer, 60 min): no difference | specificity of binding to mouse spleen tissue (autoradiography) [6]: high unspecific binding

CCCc1c(C)sc(NC(=O)C23CC4CC(CC(C4)C2)C3)c1C(=O)O[11CH3] [[^11C]AAT-778]
specificity of binding to rat spleen tissue (autoradiography) [5]: No blocking effect; also recorded: high unspecific binding | specificity of binding to mouse spleen tissue (autoradiography) [6]: No blocking effect; also recorded: high unspecific binding
